Results taken from US9617267B2, “Compounds and methods for kinase modulation, and indications therefor” (Plexxikon Inc., priority 2009, dated 2017).

Experiment: Relative solubility by turbidity threshold concentration in aqueous buffers (pH 1.5, 4.5, 6.8, 7.4)
Assay type: physicochemical
Settings: for turbidity threshold (L, M, H) 1.4: pH 1.4 [sic] (method: SGF pH 1.5); for turbidity threshold (L, M, H) 6.8: pH 6.8 (SIF); for turbidity threshold (L, M, H) 7.4: pH 7.4 (HEPES); for turbidity threshold (L, M, H) 4.5: pH 4.5 (SIF)
Experimental: As an indication of relative solubility, the turbidity of compounds in aqueous solutions is assessed. To assess possible compound properties in different physiological compartments, such as stomach, intestine, and blood, a series of aqueous buffers with varying pH is used. Thus each compound is diluted into four different physiologically relevant buffers and solution turbidity is measured by spectrophotometry.
Compounds are dissolved at a concentration of 25 mM in dimethyl sulfoxide, then serially diluted 1:1 into a 96 well plate, diluting 10 times in pure dimethyl sulfoxide, with the final well of each row a dimethyl sulfoxide blank. In an assay plate, 99 μL of appropriate buffer is added to each well, and 1 μL of each sample dilution is added to the buffer, achieving a range of final total concentrations in aqueous solutions having different pH. The buffers used are Simulated Gastric Fluid (SGF-pH 1.5) 0.5M NaCl, pH 1.5; Simulated Intestinal fluid (SIF-pH 4.5 and pH 6.8) 0.05M NaH2PO4, pH 4.5 and 6.8; and Hepes Buffer (HEPES-pH 7.4) 10 mM HEPES, 150 mM NaCl, pH 7.4. Control compounds pyrene, estriol and propranolol HCl are also assessed. Plates are spun and then mixed for 1 minute, and the absorbance is read using a Tecan Safire II to read wavelengths in the visible range (490, 535, and 650 nm) at four locations per well, reflecting the degree of turbidity present. The average optical density for each wavelength in each well is graphed vs. compound concentration, and the concentration at which the curve crosses a threshold O.D. of 0.01 for each wavelength is reported as the endpoint turbidity assay result. The average of the three wavelengths is used to compare turbidity of compounds. Compounds are considered to have low solubility if the threshold concentration is <31.3 μM, moderate solubility if the threshold concentration is 31.3 μM to 250 μM, and high solubility if the threshold concentration is >250 μm.
The following table indicates the relative solubility (L=low, M=moderate, H=high) based on turbidity threshold concentration at each pH for exemplary compounds according to the invention as indicated: […]

Row | Structure (SMILES) | turbidity threshold (L, M, H) 1.4 | turbidity threshold (L, M, H) 6.8 | turbidity threshold (L, M, H) 7.4 | turbidity threshold (L, M, H) 4.5
1 | CCCS(=O)(=O)Nc1ccc(F)c(C(=O)c2c[nH]c3ncnc(CC(C)C)c23)c1F [P-1014, Propane-1-sulfonic acid [2,4-difluoro-3-(4-isobutyl-7H-pyrrolo[2,3-d]pyrimidine-5-carbonyl)-phenyl]-amide] | M (moderate solubility if the threshold concentration is 31.3 μM to 250 μM) | M (moderate solubility if the threshold concentration is 31.3 μM to 250 μM) | M (moderate solubility if the threshold concentration is 31.3 μM to 250 μM) | 
2 | CCCS(=O)(=O)Nc1ccc(F)c(C(=O)c2c[nH]c3ncnc(NC4CC4)c23)c1F [P-1041, Propane-1-sulfonic acid [3-(4-cyclopropylamino-7H-pyrrolo[2,3-d]pyrimidine-5-carbonyl)-2,4-difluoro-phenyl]-amide] | H (high solubility if the threshold concentration is >250 μm) | M (moderate solubility if the threshold concentration is 31.3 μM to 250 μM) | M (moderate solubility if the threshold concentration is 31.3 μM to 250 μM) | M (moderate solubility if the threshold concentration is 31.3 μM to 250 μM)
3 | CCCS(=O)(=O)Nc1ccc(F)c(C(=O)c2c[nH]c3ncnc(NC(C)C)c23)c1F [P-1051, Propane-1-sulfonic acid [2,4-difluoro-3-(4-isopropylamino-7H-pyrrolo[2,3-d]pyrimidine-5-carbonyl)-phenyl]-amide] | H (high solubility if the threshold concentration is >250 μm) | M (moderate solubility if the threshold concentration is 31.3 μM to 250 μM) | M (moderate solubility if the threshold concentration is 31.3 μM to 250 μM) | M (moderate solubility if the threshold concentration is 31.3 μM to 250 μM)
4 | CCCS(=O)(=O)Nc1ccc(F)c(C(=O)c2c[nH]c3ncnc(Nc4ccncc4)c23)c1F [P-1076, Propane-1-sulfonic acid {2,4-difluoro-3-[4-(pyridin-4-ylamino)-7H-pyrrolo[2,3-d]pyrimidine-5-carbonyl]-phenyl}-amide] | H (high solubility if the threshold concentration is >250 μm) | H (high solubility if the threshold concentration is >250 μm) | H (high solubility if the threshold concentration is >250 μm) | H (high solubility if the threshold concentration is >250 μm)
5 | CCCS(=O)(=O)Nc1ccc(F)c(C(=O)c2c[nH]c3ncnc(Nc4cccc(Cl)c4)c23)c1F [P-1084, Propane-1-sulfonic acid {3-[4-(3-chloro-phenylamino)-7H-pyrrolo[2,3-d]pyrimidine-5-carbonyl]-2,4-difluoro-phenyl}-amide] | M (moderate solubility if the threshold concentration is 31.3 μM to 250 μM) | M (moderate solubility if the threshold concentration is 31.3 μM to 250 μM) | M (moderate solubility if the threshold concentration is 31.3 μM to 250 μM) | M (moderate solubility if the threshold concentration is 31.3 μM to 250 μM)
6 | CCCS(=O)(=O)Nc1ccc(F)c(C(=O)c2c[nH]c3ncnc(Nc4cccc(OC)c4)c23)c1F [P-1085, Propane-1-sulfonic acid {2,4-difluoro-3-[4-(3-methoxy-phenylamino)-7H-pyrrolo[2,3-d]pyrimidine-5-carbonyl]-phenyl}-amide] | L (low solubility if the threshold concentration is <31.3 μM) | L (low solubility if the threshold concentration is <31.3 μM) | L (low solubility if the threshold concentration is <31.3 μM) | L (low solubility if the threshold concentration is <31.3 μM)
7 | CCCS(=O)(=O)Nc1ccc(F)c(C(=O)c2c[nH]c3ncnc(Nc4ccc(Cl)cc4)c23)c1F [P-1087, Propane-1-sulfonic acid {3-[4-(4-chloro-phenylamino)-7H-pyrrolo[2,3-d]pyrimidine-5-carbonyl]-2,4-difluoro-phenyl}-amide] | M (moderate solubility if the threshold concentration is 31.3 μM to 250 μM) | M (moderate solubility if the threshold concentration is 31.3 μM to 250 μM) | M (moderate solubility if the threshold concentration is 31.3 μM to 250 μM) | L (low solubility if the threshold concentration is <31.3 μM)
8 | CCCS(=O)(=O)Nc1ccc(F)c(C(=O)c2c[nH]c3ncnc(NCC(C)C)c23)c1F [P-1088, Propane-1-sulfonic acid [2,4-difluoro-3-(4-isobutylamino-7H-pyrrolo[2,3-d]pyrimidine-5-carbonyl)-phenyl]-amide] | M (moderate solubility if the threshold concentration is 31.3 μM to 250 μM) | L (low solubility if the threshold concentration is <31.3 μM) | L (low solubility if the threshold concentration is <31.3 μM) | L (low solubility if the threshold concentration is <31.3 μM)
9 | CCCS(=O)(=O)Nc1ccc(F)c(C(=O)c2c[nH]c3ncnc(Nc4cccc(F)c4)c23)c1F [P-1094, Propane-1-sulfonic acid {2,4-difluoro-3-[4-(3-fluoro-phenylamino)-7H-pyrrolo[2,3-d]pyrimidine-5-carbonyl]-phenyl}-amide] | L (low solubility if the threshold concentration is <31.3 μM) | M (moderate solubility if the threshold concentration is 31.3 μM to 250 μM) | L (low solubility if the threshold concentration is <31.3 μM) | L (low solubility if the threshold concentration is <31.3 μM)
10 | CCCS(=O)(=O)Nc1ccc(F)c(C(=O)c2c[nH]c3ncnc(NC4CCN(CC)CC4)c23)c1F [P-1095, Propane-1-sulfonic acid {3-[4-(1-ethyl-piperidin-4-ylamino)-7H-pyrrolo[2,3-d]pyrimidine-5-carbonyl]-2,4-difluoro-phenyl}-amide] | H (high solubility if the threshold concentration is >250 μm) | H (high solubility if the threshold concentration is >250 μm) | H (high solubility if the threshold concentration is >250 μm) | H (high solubility if the threshold concentration is >250 μm)
